According to PubChem BioAssay AID330 (DTP/NCI, 2004):
Where “and” joins values, the source holds several entries; their conditions need not be identical. Equal entries are not always repeated. Toxic doses and inconclusive results are not listed. How the source made its calls: active means survival T/C of 150% or more; inactive means T/C below 125% in these data.

Test system: P388 leukemia ip, CD2F1 mice, survival T/C
Assay: NCI In Vivo Anticancer Drug Screen. Data for tumor model P388 Leukemia (intraperitoneal) in CD2F1 (CDF1) mice
Details: endpoint: median survival time, higher = longer survival
Outline: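 Mice carrying the transplanted tumor received test compound or vehicle. Survival was recorded in each group, and the value is the treated-group measurement divided by that of the vehicle-treated control group.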

[1] = dose: 60.0 mg/kg/injection, schedule: Q01DX005 (ip), vehicle: Klucel (hydroxypropylcellulose) (HPC)
[2] = dose: 120.0 mg/kg/injection, schedule: Q01DX005 (ip), vehicle: Klucel (hydroxypropylcellulose) (HPC)
[3] = dose: 240.0 mg/kg/injection, schedule: Q01DX005 (ip), vehicle: Klucel (hydroxypropylcellulose) (HPC)
[4] = dose: 100.0 mg/kg/injection, schedule: Q01DX001 (ip), vehicle: saline with Tween-80
[5] = dose: 200.0 mg/kg/injection, schedule: Q01DX001 (ip), vehicle: saline with Tween-80
[6] = dose: 400.0 mg/kg/injection, schedule: Q01DX001 (ip), vehicle: saline with Tween-80

Measured: T/C

NC(C[P+](=O)O)C(=O)O (centres undefined)
inactive: dose: 18.75 mg/kg/injection, schedule: Q01DX005 (ip), vehicle: water 103 % of control | dose: 37.5 mg/kg/injection, schedule: Q01DX005 (ip), vehicle: water 111 % of control | dose: 75.0 mg/kg/injection, schedule: Q01DX005 (ip), vehicle: water 91 % of control | dose: 150.0 mg/kg/injection, schedule: Q01DX005 (ip), vehicle: water 87 % of control

COC1C=C(Cl)C(=O)C(C)O1 (centres undefined)
inactive: dose: 25.0 mg/kg/injection, schedule: Q04DX003 (ip), vehicle: Klucel (hydroxypropylcellulose) (HPC) 100 % of control | dose: 50.0 mg/kg/injection, schedule: Q04DX003 (ip), vehicle: Klucel (hydroxypropylcellulose) (HPC) 106 % of control | dose: 100.0 mg/kg/injection, schedule: Q04DX003 (ip), vehicle: Klucel (hydroxypropylcellulose) (HPC) 100 % of control

CCOc1c(N=Nc2ccc([N+](=O)[O-])cc2)c(C)nn1C(=S)S
inactive: [1] 100 % of control | [2] 95 % of control | [3] 100 % of control

COc1cccc(/C=N/N(C)c2c([N+](=O)[O-])cc(C(F)(F)F)cc2[N+](=O)[O-])c1O
inactive: [1] 93 % of control | [2] 92 % of control | [3] 87 % of control

O=C(O)CCC(=O)O
inactive: dose: 10.0 mg/kg/injection, schedule: Q01DX009 (ip), vehicle: water 90 % of control | dose: 20.0 mg/kg/injection, schedule: Q01DX009 (ip), vehicle: water 99 % of control and 109 % of control | dose: 40.0 mg/kg/injection, schedule: Q01DX009 (ip), vehicle: water 98 % of control and 94 % of control | dose: 80.0 mg/kg/injection, schedule: Q01DX009 (ip), vehicle: water 96 % of control and 91 % of control | dose: 160.0 mg/kg/injection, schedule: Q01DX009 (ip), vehicle: water 101 % of control and 102 % of control

Cc1cc(C)nc(NN=O)c1
inactive: dose: 3.12 mg/kg/injection, schedule: Q01DX009 (ip), vehicle: water 104 % of control and 112 % of control | dose: 6.25 mg/kg/injection, schedule: Q01DX009 (ip), vehicle: water 121 % of control | dose: 12.5 mg/kg/injection, schedule: Q01DX009 (ip), vehicle: water 121 % of control | dose: 50.0 mg/kg/injection, schedule: Q01DX009 (ip), vehicle: water 95 % of control

COC(=O)C1=NC1c1ccc(C)cc1 (centres undefined)
inactive: [4] 104 % of control | [5] 110 % of control | [6] 100 % of control

CC(C)c1ccc2c(c1)CCC1C(C)(CN)CCCC21C (centres undefined)
inactive: dose: 50.0 mg/kg/injection, schedule: Q01DX005 (ip), vehicle: Klucel (hydroxypropylcellulose) (HPC) 97 % of control | dose: 100.0 mg/kg/injection, schedule: Q01DX005 (ip), vehicle: Klucel (hydroxypropylcellulose) (HPC) 99 % of control

Cc1c(-c2ccccc2)nc2sccn12
inactive: dose: 25.0 mg/kg/injection, schedule: Q01DX009 (ip), vehicle: saline 102 % of control | dose: 50.0 mg/kg/injection, schedule: Q01DX009 (ip), vehicle: saline 102 % of control | dose: 100.0 mg/kg/injection, schedule: Q01DX009 (ip), vehicle: saline 96 % of control

CCCn1c(Cl)c(/C=N\Nc2ccc([N+](=O)[O-])cc2)c2ccccc21
inactive: [4] 103 % of control | [5] 95 % of control | [6] 95 % of control

O=c1[nH]c(=S)[nH]c2c(=O)[nH]c(=S)[nH]c12
inactive: dose: 12.5 mg/kg/injection, schedule: Q01DX009 (ip), vehicle: Klucel (hydroxypropylcellulose) (HPC) 107 % of control | dose: 25.0 mg/kg/injection, schedule: Q01DX009 (ip), vehicle: Klucel (hydroxypropylcellulose) (HPC) 101 % of control | dose: 50.0 mg/kg/injection, schedule: Q01DX009 (ip), vehicle: Klucel (hydroxypropylcellulose) (HPC) 101 % of control and 111 % of control

Cc1cc(C(=O)O)nn1-c1ccc(S(=O)(=O)N2CCC(=O)N(C3CCCCC3)C2=S)cc1
inactive: dose: 50.0 mg/kg/injection, schedule: Q01DX005 (ip), vehicle: saline with Tween-80 95 % of control | dose: 100.0 mg/kg/injection, schedule: Q01DX005 (ip), vehicle: saline with Tween-80 101 % of control | dose: 200.0 mg/kg/injection, schedule: Q01DX005 (ip), vehicle: saline with Tween-80 101 % of control
